Structures can show the parent of a compound that is named as a salt.

From patent publication US9199927B2, “Guanidinobenzoic acid compound” (Astellas Pharma Inc., priority 2011, dated 2015) come the findings set out here.

Series [1] has as its target human recombinant trypsin (r-h trypsin) (Homo sapiens (Human), UniProt P07477). Description: Inhibitory activity of trypsin enzyme (human recombinant trypsin, BZiPAR fluorescent substrate). It counts as biochemical. Conditions: human recombinant trypsin 0.088 μg/mL, 30 minutes at room temperature. Here is the method: (§1) 1. Inhibitory Activity of Trypsin Enzyme in Humans and Mice
(§2) In the experiment, human recombinant trypsin (r-h trypsin; manufactured by WAKO, cat. #206-17171) and mouse trypsin (m-trypsin; purified from the mouse small intestine contents by the present Company) were used.
(§3) The outline of the measurement method is shown below.
(§4) The compound was dissolved in dimethyl sulfoxide (DMSO), and diluted to an arbitrary concentration (A). A was 100-fold diluted with a buffer (0.1 M Tris (pH 8.0), 0.15 M NaCl, 10 mM CaCl2, 0.05% Brij38) (B). The r-h trypsin was diluted with a buffer to 0.088 μg/mL, and the m-trypsin was diluted with a buffer to 1/50 (C). […] The substrate solution of a substrate for the enzyme reaction, BZiPAR, (Rhodamine Reference Substrate) was diluted with a buffer to 5 μmol/L (D). B; 5 μL, C; 5 μL, and D; 10 μL were added to a 384-plate, and incubated at room temperature for 30 minutes. The fluorescent signals were detected with Ex/Em=497/520 using Tecan Safire Fluorometer. […] Based on the obtained inhibitory rates, IC50 values (nM) were calculated from the non-linear regression. The test was carried out in the same manner, using camostat as a control compound.
(§5) Ex in the table represents the Example No. as denoted below.

In series [2] the target is mouse trypsin (m-trypsin). The series can be described thus: Inhibitory activity of trypsin enzyme (mouse trypsin purified from small intestine contents, BZiPAR fluorescent substrate). The series is classed as biochemical. Conditions: mouse trypsin diluted 1/50, BZiPAR substrate, 30 minutes at room temperature.
Source text: as §1, §2
The method to extract the trypsin from the mouse small intestine is shown below.
The small intestine contents and the gastrointestinal tract of 10 mice were suspended in PBS using Polytron and subjected to centrifugation at 15,000×g several times. The supernatant was mixed at 4° C. for 16 hours with a Benzamidine Sepharose 4 Fast Flow Resin (GE Healthcare: #17-5123-10). After washing the resin with PBS, m-trypsin was eluted with a glycine elution buffer (pH 3.0).
as §3, §4, §5

The test system of the next series is ICR mice. The series can be described thus: Increasing study of fecal protein concentration in mice. The series is classed as in vivo. As to conditions: Mus musculus, 5 mg/kg oral, feces collected 3 to 9 hours after, control = 1, read-out: protein increasing activity in feces, fold vs control. Here is the method: 2. Increasing Study of Fecal Protein Concentration in Mice
For the experiment, 6-weeks old ICR mice (male) were used, and the experiment was carried out in five per group. After fasting the mice for 15 hours, the control group was forcibly orally administered with a 0.5% methyl cellulose (MC) solution, and the test drug group was forcibly orally administered (5 mg/kg) with a solution or suspension obtained by dissolving or suspending the compound in the 0.5% MC solution. The fasting was stopped immediately thereafter, free feeding (CE-2) started and then the feces were collected from after 3 hours to after 9 hours. All of the obtained feces were dissolved and suspended in 6 mL of distilled water, and centrifuged for 10 minutes at 3000 rpm. The protein concentration in the supernatant was measured by a Bradford method, and the amount of the protein in 1 g of feces was calculated by dividing the protein concentration in the feces by the total weight of feces. Further, the efficacy was investigated from the ratio to the control. For the compounds that were evaluated multiple times, the average values were calculated.
For some representative compounds, the protein increasing activities in feces are shown in Table 2, assuming a value for the control as 1. Ex in the table represents the Example No. as denoted below of the test compound.

`N=C(N)Nc1ccc(C(=O)Oc2ccc(CCC(=O)N(CC(=O)O)Cc3cccc(C(=O)O)c3)c(Cl)c2)cc1` (as salt: mesylate) [Example 3, 3-{[(3-{4-[(4-carbamimidamidobenzoyl)oxy]-2-chlorophenyl}propanoyl)(carboxymethyl)amino]methyl}benzoic acid mesylate] yielded a melting point of 197 °C.

As to `N=C(N)Nc1ccc(C(=O)Oc2ccc(CCC(=O)N(CCc3cccc(C(=O)O)c3)CC(=O)O)c(Cl)c2)cc1` [Example 58], the concentration for half-maximal inhibition (IC50) was found to be 730 pM in series [1] and 680 pM in series [2]. The response vs control in vivo at 5 mg/kg in the series with ICR mice was 179%.

Turning to `N=C(N)Nc1ccc(C(=O)Oc2ccc3nc(C(=O)N(CC(=O)O)Cc4cccc(C(=O)O)c4)ccc3c2)cc1` [Example 59], the IC50 in series [1] was determined as 270 pM; in series [2], 310 pM. In the series with ICR mice, the response vs control in vivo at 5 mg/kg turned out to be 217%.

Turning to `N=C(N)Nc1ccc(C(=O)Oc2ccc(CCC(=O)N(CC(=O)O)Cc3cccc(CC(=O)O)c3)c(Cl)c2)cc1` [Example 78], the IC50 in series [1] came to 490 pM; in series [2], 390 pM. The response vs control in vivo at 5 mg/kg in the series on ICR mice amounted to 167%.

The compound `CC(C(=O)N(CC(=O)O)Cc1cccc(C(=O)O)c1)c1ccc(OC(=O)c2ccc(NC(=N)N)cc2)cc1Cl` (stereo not drawn) [Example 5, 3-{[(2-{4-[(4-carbamimidamidobenzoyl)oxy]-2-chlorophenyl}propanoyl)(carboxymethyl)amino]methyl}benzoic acid] showed a melting point of 208 °C.

As for `N=C(N)Nc1ccc(C(=O)Oc2ccc(CCC(=O)N(CCC(=O)O)Cc3cccc(C(=O)O)c3)c(Cl)c2)cc1` [Example 45], the half-inhibitory concentration (IC50) in series [1] amounted to 570 pM; in series [2], 660 pM. Also, the response vs control in vivo at 5 mg/kg with ICR mice came out at 165%.

For `N=C(N)Nc1ccc(C(=O)Oc2ccc3nc(C(=O)N(CC(=O)O)Cc4csc(C(=O)O)c4)ccc3c2)cc1` [Example 80], the IC50 turned out to be 210 pM in series [1] and 300 pM in series [2]. In the series on ICR mice, the response vs control in vivo at 5 mg/kg was 189%.

Turning to `CN(C(=O)N(CC(=O)O)Cc1csc(C(=O)O)c1)c1ccc(OC(=O)c2ccc(NC(=N)N)cc2)cc1Cl` [Example 111], the results for the IC50 in series [1] and in series [2] were 540 pM and 440 pM, respectively. For the same compound, in the series with ICR mice, the response vs control in vivo at 5 mg/kg was found to be 201%.

For `N=C(N)Nc1ccc(C(=O)Oc2ccc(CC(=O)N[C@@H](Cc3ccc(C(=O)O)cc3)C(=O)O)c(Cl)c2)cc1` [Example 13], the half-maximal inhibitory concentration (IC50) in series [1] was 910 pM; in series [2], 840 pM. In addition, the response vs control in vivo at 5 mg/kg with ICR mice is 185%.

Consider `N=C(N)Nc1ccc(C(=O)Oc2ccc(CCC(=O)NCc3ccccc3C(=O)O)c(Cl)c2)cc1` [Example 52], for which the IC50 in series [1] was 300 pM; in series [2], 390 pM. The response vs control in vivo at 5 mg/kg in the series on ICR mice amounted to 182%.

Turning to `N=C(N)Nc1ccc(C(=O)Oc2ccc(CCC(=O)N(CC(=O)O)Cc3cccc(C(=O)O)c3)c(Cl)c2)cc1` [Example 36], the values for the IC50 in series [1] and in series [2] were 430 pM and 380 pM, respectively. The response vs control in vivo at 5 mg/kg with ICR mice amounted to 192%.

With `N=C(N)Nc1ccc(C(=O)Oc2ccc(CCC(=O)N(CC(=O)O)Cc3ccccc3C(=O)O)c(Cl)c2)cc1` [Example 53], the IC50 in series [1] turned out to be 450 pM; in series [2], 350 pM. For the same compound, the response vs control in vivo at 5 mg/kg with ICR mice was found to be 179%.

Consider `CN(C(=O)N(CC(=O)O)Cc1cccc(C(=O)O)c1)c1ccc(OC(=O)c2ccc(NC(=N)N)cc2)cc1Cl` [Example 61], for which the IC50 is 230 pM in series [1] and 140 pM in series [2]. For the same compound, the response vs control in vivo at 5 mg/kg with ICR mice came to 167%.

In turn, `N=C(N)Nc1ccc(C(=O)Oc2ccc3nc(C(=O)N(CC(=O)O)Cc4cccc(C(=O)O)c4)ccc3c2)cc1` [Example 4, 3-{[({6-[(4-carbamimidamidobenzoyl)oxy]quinolin-2-yl}carbonyl)(carboxymethyl)amino]methyl}benzoic acid] gave a melting point of 255 °C.

In general, melting point refers to the temperature, or range, at which the solid turns liquid. A word on the IC50: it is the concentration that gives 50% inhibition.
